Source: US20240010606A1, “FUMARATE DERIVATIVES AND THEIR MEDICAL USE” (Sitryx Therapeutics Limited, priority 2020, published 2024)
Where a name gives a salt, the structure may show the parent alone.

Columns and labels:
IL-1β = test: THP-1 AlphaLISA IL-1β cytokine assay; type: cell-based; conditions: for IC50: Homo sapiens, differentiated THP-1 cells, Table 2, compounds of formula (II)
Experimental: (§1) Biological Example 1—THP-1 AlphaLISA IL-1β and IL-6 Cytokine Assay Measuring Inhibitory Effects on IL-1, and IL-6 Cytokine Output from THP-1s The cytokine inhibition profiles of compounds of formula (I) were determined in a differentiated THP-1 cell assay. All assays were performed in RPMI-1640 growth medium (Gibco), supplemented with 10% fetal bovine serum (FBS; Gibco), 1% penicillin-streptomycin and 1% sodium pyruvate unless specified otherwise. The IL-1β and IL-6 cytokine inhibition assays were each run in a background of differentiated THP-1 cells as described below. All reagents described were from Sigma-Aldrich unless specified otherwise. Compounds were prepared as 10 mM DMSO stocks. THP-1 cells were expanded as a suspension up to 80% confluence in appropriate growth medium. Cells were harvested, suspended, and treated with an appropriate concentration of phorbol 12-myristate 13-acetate (PMA) over a 72 hr period (37° C./5% CO2). Following 72 hrs of THP-1 cell incubation, cellular medium was removed and replaced with fresh growth media containing 1% of FBS. Working concentrations of compounds were prepared separately in 10% FBS treated growth medium and pre-incubated with the cells for 30 minutes (37° C./5% CO2). Following the 30 minute compound pre-incubation, THP-1s were treated with an appropriate concentration of LPS and the THP-1s were subsequently incubated for a 24 hr period (37° C./5% CO2). An appropriate final concentration of Nigericin was then dispensed into the THP-1 plates and incubated for 1 hour (37° C./5% CO2) before THP-1 supernatants were harvested and collected in separate polypropylene 96-well holding plates. Reagents from each of the IL-1β and IL-6 commercial kits (Perkin Elmer) were prepared and run according to the manufacturer's instructions. Subsequently, fluorescence signal detection in a microplate reader was measured (EnVision® Multilabel Reader, Perkin Elmer). Percentage inhibition was calculated per cytokine by normalizing the sample data to the high and low controls used within each plate (+/−LPS respectively). Percentage inhibition was then plotted against compound concentration and the 50% inhibitory concentration (IC50) was determined from the resultant concentration-response curve.

IL-6 = test: THP-1 AlphaLISA IL-6 cytokine assay; type: cell-based; conditions: Homo sapiens
Experimental: as §1

hepatocytes [1] = test: Hepatocyte stability assay, human; type: in vitro ADME; conditions: 10 μM compound, Table 6
From the text: (§2) Biological Example 3—Hepatocyte Stability Assay
(§3) Defrosted cryo-preserved hepatocytes (viability >70%) are used to determine the metabolic stability of a compound via calculation of intrinsic clearance (CIint; a measure of the removal of a compound from the liver in the absence of blood flow and cell binding). Clearance data are particularly important for […] as they can be used in combination with in vivo data to predict the half-life and oral bioavailability of a drug.
(§4) The metabolic stability in hepatocytes assay involves a time-dependent reaction using both positive and negative controls. The cells must be pre-incubated at 37° C. then spiked with test compound (and positive control); samples taken at pre-determined time intervals are analysed to monitor the change in concentration of the initial drug compound over 60 minutes. A buffer incubation reaction (with no hepatocytes present) acts as a negative control and two cocktail solutions, containing compounds with known high and low clearance values (verapamil/7-hydroxycoumarin and propranolol/diltiazem), act as positive controls. • 1. The assay is run with a cell concentration of 0.5×10^6 cells/mL in Leibovitz buffer. • 2. All compounds and controls are run in duplicate. • 3. Compound concentration is 10 μM. • 4. All compounds and controls are incubated with both cells and buffer to show turnover is due to hepatic metabolism. • 5. All wells on the incubation plate will have 326.7 μL of either cells or buffer added. • 6. Prior to assay, cell and buffer-only incubation plates are preincubated for 10 mins at 37° C. • 7. The assay is initiated by adding compounds, 3.3 μL of 1 mM in 10% DMSO-90% Buffer; final DMSO concentration is 0.1%. • 8. Samples are taken at regular timepoints (0, 5, 10, 20, 40, 60 min) until 60 mins. • 9. Sample volume is 40 μL and it is added to 160 μL of crash solvent (acetonitrile with internal standard) and stored on ice. • 10. At the end of the assay, the crash plates are centrifuged at 3500 rpm for 20 mins at 4° C. • 11. 80 μL of clear supernatant is removed and mixed with 80 μL of deionised water before being analysed by LC-MS/MS.
(§5) Raw LC-MS/MS data are exported to, and analysed in, Microsoft Excel for determination of intrinsic clearance. The percentage remaining of a compound is monitored using the peak area of the initial concentration as 100%. Intrinsic clearance and half-life values are calculated using a graph of the natural log of percentage remaining versus the time of reaction in minutes. Half-life (min) and intrinsic clearance (CIint in μL min^−1 10^−6 cells) values are calculated using the gradient of the graph (the elimination rate constant, k) and Equations 1 and 2.

hepatocytes [2] = test: Hepatocyte stability assay, mouse; type: in vitro ADME; conditions: 10 μM compound, Table 6
From the text: as §2, §3, §4, §5

NRF2 = NRF2 activation assay (DiscoverX PathHunter NRF2 translocation kit, U2OS cells); type: cell-based
Experimental: Biological Example 2—NRF2 Activation Assay Measuring Compound Activation Effects on the Anti-Inflammatory Transcription Factor NRF2 in DiscoverX PathHunter NRF2 Translocation Kit Potency and efficacy of compounds of formula (I) against the target of interest to activate NRF2 (nuclear factor erythroid 2-related factor 2) were determined using the PathHunter NRF2 translocation kit (DiscoverX). The NRF2 translocation assay was run using an engineered recombinant cell line, utilising enzyme fragment complementation to determine activation of the Keap1-NRF2 protein complex and subsequent translocation of NRF2 into the nucleus. Enzyme activity was quantified using a chemiluminescent substrate consumed following the formation of a functional enzyme upon PK-tagged NRF2 translocation into the nucleus. Additionally, a defined concentration of dimethyl fumarate was used as the ‘High’ control to normalise test compound activation responses to. U2OS PathHunter eXpress cells were thawed from frozen prior to plating. Following plating, U2OS cells were incubated for 24 hrs (37° C./5% CO2) in commercial kit provided cell medium. Following 24 hrs of U2OS incubation, cells were directly treated with an appropriate final concentration of compound. Following compound treatment, the U2OS plates were incubated for a further 6 hours (37° C./5% CO2) before detection reagent from the PathHunter NRF2 commercial kit was prepared and added to test plates according to the manufacturer's instructions. Subsequently, the luminescence signal detection in a microplate reader was measured (PHERAstar®, BMG Labtech). Percentage activation was calculated by normalising the sample data to the high and low controls used within each plate (+/−DMF). Percentage activation/response was then plotted against compound concentration and the 50% activation concentration (EC50) was determined from the plotted concentration-response curve.

[3] = THP-1, differentiated THP-1 cells, Table 2, compounds of formula (II)
[4] = +GSH, Table 4, compounds of formula (II)
[5] = −GSH, Table 4, compounds of formula (II)

SMILES | IC50 (IL-1β) | IC50 (IL-6; [3]) | also measured
N#C[C@H]1C[C@](OC(=O)/C=C/C(=O)O)(c2ccc(C(F)(F)F)cc2)C1 (single isomer, unassigned) [Intermediate 34, (E)-4-((cis)-3-cyano-1-(4-(trifluoromethyl)phenyl)cyclobutoxy)-4-oxobut-2-enoic acid] | 6 to 30 µM | 30 to 50 µM | –
O=C(O)/C=C/C(=O)OC(c1ccc(C(F)(F)F)cc1)C(F)(F)F (single isomer, unassigned) [Intermediate 45, (E)-4-oxo-4-(2,2,2-trifluoro-1-(4-(trifluoromethyl)phenyl)ethoxy)but-2-enoic acid] | – | – | CIint (hepatocytes [1]): ++ (++ means >30-110); T½ (hepatocytes [1]): ++ (++ means 5-29); CIint (hepatocytes [2]): + (+ means >110-277); T½ (hepatocytes [2]): 4 min
CC1(OC(=O)/C=C/C(=O)O)CCC1 [Intermediate 4, (E)-4-(1-methylcyclobutoxy)-4-oxobut-2-enoic acid] | > 100 µM | – | activity in the THP-1 cytokine assays (in words) (IL-1β; THP-1 IL-1β and IL-6 assays): not active; EC50 (NRF2; [4]): 23 to 48.4 µM; NRF2 activation Emax (NRF2; [4]): + (+ means >50-<87%); EC50 (NRF2; [5]): < 23 µM; NRF2 activation Emax (NRF2; [5]): +++ (+++ means >114-150%)
CCCCCCCCOC(=O)/C=C/C(=O)O [Intermediate 5, Octyl Fumarate] | – | – | EC50 (NRF2; [4]): < 23 µM; NRF2 activation Emax (NRF2; [4]): ++++ (++++ means >150%); EC50 (NRF2; [5]): < 23 µM; NRF2 activation Emax (NRF2; [5]): ++++ (++++ means >150%)
O=C(O)/C=C/C(=O)OC1(c2ccc(C(F)(F)F)cn2)CCC1 [Intermediate 9, (E)-4-oxo-4-(1-(5-(trifluoromethyl)pyridin-2-yl)cyclobutoxy)but-2-enoic acid] | 6 to 30 µM | 6 to 30 µM | –
O=C(O)/C=C/C(=O)OC1(c2ccccc2C(F)(F)F)CCC1 [Intermediate 11, (E)-4-oxo-4-(1-(2-(trifluoromethyl)phenyl)cyclobutoxy)but-2-enoic acid] | 50 to 100 µM | > 100 µM | –
O=C(O)/C=C/C(=O)OC1(c2ccc(Cl)cc2)CCC1 [Intermediate 13, (E)-4-(1-(4-chlorophenyl)cyclobutoxy)-4-oxobut-2-enoic acid] | 6 to 30 µM | 6 to 30 µM | –
O=C(O)/C=C/C(=O)OC1(c2ccc(C(F)(F)F)nc2)CCC1 [Intermediate 15, (E)-4-oxo-4-(1-(6-(trifluoromethyl)pyridin-3-yl)cyclobutoxy)but-2-enoic acid] | 30 to 50 µM | > 100 µM | –
O=C(O)/C=C/C(=O)OC1(c2ccc(Br)cn2)CCC1 [Intermediate 23, (E)-4-(1-(5-bromopyridin-2-yl)cyclobutoxy)-4-oxobut-2-enoic acid] | 6 to 30 µM | – | IC50 (IL-6; differentiated THP-1 cells, Table 2, compounds of formula (II)): 6 to 30 µM
O=C(O)/C=C/C(=O)OC1(c2ccc(Cl)cn2)CCC1 [Intermediate 24, (E)-4-(1-(5-chloropyridin-2-yl)cyclobutoxy)-4-oxobut-2-enoic acid] | 30 to 50 µM | 6 to 30 µM | –
N#Cc1ccc(C2(OC(=O)/C=C/C(=O)O)CCC2)cc1 [Intermediate 27, (E)-4-(1-(4-cyanophenyl)cyclobutoxy)-4-oxobut-2-enoic acid] | 50 to 100 µM | 6 to 30 µM | –
O=C(O)/C=C/C(=O)OC1(c2cc(F)c(F)c(F)c2)CCC1 [Intermediate 28, (E)-4-oxo-4-(1-(3,4,5-trifluorophenyl)cyclobutoxy)but-2-enoic acid] | 6 to 30 µM | 6 to 30 µM | –
O=C(O)/C=C/C(=O)OC1(c2ccc(C(F)F)cc2)CCC1 [Intermediate 31, (E)-4-(1-(4-(difluoromethyl)phenyl)cyclobutoxy)-4-oxobut-2-enoic acid] | 6 to 30 µM | 6 to 30 µM | –
O=C(O)/C=C/C(=O)OC1(c2ccc(C(F)(F)F)cc2)CCOCC1 [Intermediate 35, (E)-4-oxo-4-((4-(4-(trifluoromethyl)phenyl)tetrahydro-2H-pyran-4-yl)oxy)but-2-enoic acid] | 50 to 100 µM | > 100 µM | –
O=C(O)/C=C/C(=O)OC1(c2ncc(C(F)(F)F)cn2)CCC1 [Intermediate 39, (E)-4-oxo-4-(1-(5-(trifluoromethyl)pyrimidin-2-yl)cyclobutoxy)but-2-enoic acid] | 30 to 50 µM | 30 to 50 µM | –
COc1cc(OC)cc(C2(OC(=O)/C=C/C(=O)O)CCC2)c1 [Intermediate 40, (E)-4-(1-(3,5-dimethoxyphenyl)cyclobutoxy)-4-oxobut-2-enoic acid] | > 100 µM | 30 to 50 µM | –
COC(=O)/C=C/C(=O)OC [dimethyl fumarate, Dimethyl fumarate, reference compound] | – | – | IC50 (IL-6; THP-1, differentiated THP-1 cells, LPS then Nigericin, Table 1): 9.3 µM; EC50 (NRF2; +GSH, Table 3): > 100 µM; NRF2 activation Emax (NRF2; +GSH, normalised to dimethyl fumarate high control, Table 3): 17.1%; EC50 (NRF2; −GSH, Table 3): 6.1 µM; NRF2 activation Emax (NRF2; −GSH, normalised to dimethyl fumarate high control, Table 3): 100%
COC(=O)/C=C/C(=O)O [monomethyl fumarate, Monomethyl fumarate, reference compound] | > 100 µM | > 100 µM | EC50 (NRF2; [4]): 48.4 µM; NRF2 activation Emax (NRF2; [4]): 87%; EC50 (NRF2; [5]): 23 µM; NRF2 activation Emax (NRF2; [5]): 114%
